Test: Inhibition of Staphylococcus aureus sortase A using Abz-LPETG-Dap(DNP)-NH2 as substrate preincubated for 1 hr followed by substrate addition by FRET assay

With `CC(C)NC(=O)c1cccc2nc(-c3ccc(COC(=O)c4cccc(O)c4)cc3)oc12` as the compound, how does the IC50 read?
The IC50 was 144 µM.

Which IC50 does the source give for `CCCCNCc1ccc(-c2nc3cccc(C(=O)NCC(C)C)c3o2)cc1` here?
Its IC50 is 136 µM.

For `CC(C)CNC(=O)c1cccc2nc(-c3ccc(CNCc4ccccc4)cc3)oc12`, which IC50 is on record?
Its IC50 is 128 µM.

With `CCCCNC(=O)c1cccc2nc(-c3ccc(COC(=O)/C=C/c4ccc(O)cc4)cc3)oc12` as the compound, how does the IC50 read?
Its IC50 is 184 µM.

For `CC(C)CNC(=O)c1cccc2nc(-c3ccc(COC(=O)c4cccc(O)c4)cc3)oc12`, which IC50 is on record?
The IC50 was 26.1 µM.

Which IC50 does the source give for `CCCCNC(=O)c1cccc2nc(-c3ccc(COC(=O)c4cccc(O)c4)cc3)oc12` here?
Its IC50 is 161 µM.

For `COc1cc(OC)cc(C(=O)OCc2ccc(-c3nc4cccc(C(=O)NCC(C)C)c4o3)cc2)c1`, which IC50 is on record?
Its IC50 is 24.8 µM.

Which IC50 does the source give for `O=C(OCc1ccc(-c2nc3ccccc3o2)cc1)c1ccc(O)cc1` here?
Its IC50 is over 200 µM.

With `CCCCNC(=O)c1cccc2nc(-c3ccc(COC(=O)Cc4cccc(O)c4)cc3)oc12` as the compound, how does the IC50 read?
Its IC50 is 177 µM.

Which IC50 does the source give for `O=C(Cc1cccc(O)c1)OCc1ccc(-c2nc3ccccc3o2)cc1` here?
The IC50 was over 200 µM.

For `CC(C)CNC(=O)c1cccc2nc(-c3ccc(COC(=O)Cc4ccc(O)cc4)cc3)oc12`, which IC50 is on record?
The IC50 was 73.2 µM.

With `CC(C)CNC(=O)c1cccc2nc(-c3ccc(COC(=O)Cc4ccc(O)c(O)c4)cc3)oc12` as the compound, how does the IC50 read?
Its IC50 is 64.4 µM.

With `CCCCNC(=O)c1cccc2nc(-c3ccc(COC(=O)c4ccc(O)cc4)cc3)oc12` as the compound, how does the IC50 read?
The IC50 was 155 µM.

Which IC50 does the source give for `CC(C)NC(=O)c1cccc2nc(-c3ccc(COC(=O)Cc4ccc(O)c(O)c4)cc3)oc12` here?
Its IC50 is 74.8 µM.

Which IC50 does the source give for `CC(C)NC(=O)c1cccc2nc(-c3ccc(COC(=O)Cc4ccc(O)cc4)cc3)oc12` here?
Its IC50 is 116 µM.

With `COc1ccc(NCc2ccc(-c3nc4cccc(C(=O)NCC(C)C)c4o3)cc2)cc1` as the compound, how does the IC50 read?
Its IC50 is 65.5 µM.

With `CC(C)NC(=O)c1cccc2nc(-c3ccc(COC(=O)c4ccc(O)cc4)cc3)oc12` as the compound, how does the IC50 read?
The IC50 was 46.3 µM.

Which IC50 does the source give for `CC(C)CNC(=O)c1cccc2nc(-c3ccc(COC(=O)c4ccc(O)c(O)c4O)cc3)oc12` here?
Its IC50 is 19.8 µM.

With `CC(C)CNC(=O)c1cccc2nc(-c3ccc(COC(=O)/C=C/c4ccc(O)cc4)cc3)oc12` as the compound, how does the IC50 read?
Its IC50 is 87.4 µM.

Which IC50 does the source give for `CC(C)CNC(=O)c1cccc2nc(-c3ccc(COC(=O)Cc4ccc([N+](=O)[O-])c(O)c4)cc3)oc12` here?
The IC50 was 87.4 µM.

For `CC(C)CNC(=O)c1cccc2nc(-c3ccc(COC(=O)c4ccccc4)cc3)oc12`, which IC50 is on record?
The IC50 was 161 µM.

For `CCCCNC(=O)c1cccc2nc(-c3ccc(COC(=O)Cc4ccc(O)cc4)cc3)oc12`, which IC50 is on record?
Its IC50 is 181 µM.

With `CC(C)CNC(=O)c1cccc2nc(-c3ccc(COC(=O)c4ccc(O)c(O)c4)cc3)oc12` as the compound, how does the IC50 read?
Its IC50 is 20.6 µM.

With `CC(C)CNC(=O)c1cccc2nc(-c3ccc(COC(=O)c4ccc([N+](=O)[O-])cc4)cc3)oc12` as the compound, how does the IC50 read?
The IC50 was 159 µM.

Which IC50 does the source give for `CC(C)CNC(=O)c1cccc2nc(-c3ccc(COC(=O)c4ccc(O)cc4O)cc3)oc12` here?
The IC50 was 22.4 µM.

For `CC(C)CNC(=O)c1cccc2nc(-c3ccc(COC(=O)c4ccccc4[N+](=O)[O-])cc3)oc12`, which IC50 is on record?
Its IC50 is 155 µM.

Which IC50 does the source give for `CC(C)CNC(=O)c1cccc2nc(-c3ccc(COC(=O)Cc4cccc(O)c4)cc3)oc12` here?
The IC50 was 81.4 µM.

With `O=C(Cc1ccc(O)c(O)c1)OCc1ccc(-c2nc3ccccc3o2)cc1` as the compound, how does the IC50 read?
The IC50 was over 200 µM.

Which IC50 does the source give for `O=C(OCc1ccc(-c2nc3ccccc3o2)cc1)c1cccc(O)c1` here?
Its IC50 is over 200 µM.

Source: ChEMBL document CHEMBL3826962, “Synthesis, biological evaluation and molecular docking of 2-phenyl-benzo[d]oxazole-7-carboxamide derivatives as potential Staphylococcus aureus Sortase A inhibitors” (Bioorg Med Chem Lett, 2016)
